# From US20230183303A1, “Therapeutic Potential of Peptides from the "Netrin-Like" Domain of the FRZB Protein” (Université de Lorraine, priority 2020, published 2023)
# Key:
# CamKII pathway [1] = experiment: Western blot of CamKII pathway activation in MC3T3-E1 cells; assay type: cell-based, mouse; details: PEP16 at 300 or 1000 ng/mL; early osteogenesis stages
# From the text: Each time point was processed in three technical replicates. The medium was changed every two days.
# CamKII pathway [2] = experiment: Western blot of CamKII pathway activation in ATDC5 micromasses; assay type: cell-based, mouse; details: PEP16 at 100 and 300 ng/mL; pre-mineralization phase of chondrogenesis (D14)
# Procedure: Mouse chondrogenic ATDC5 cells (cartilage-specific chondrogenic strain) were cultured until confluent in maintenance medium containing 1:1 Dulbecco's modified Eagle's medium (DMEM): Ham's F-12 mix (Gibco) supplemented with 1% antibiotic (AB, Penicillin-Streptomycin, Gibco), 5% fetal bovine serum (FBS) (Gibco) and enriched with […] human transferrin (Sigma) and 30 nM sodium selenite (Sigma). Cells were trypsinized, washed and resuspended at 2.10^7 cells/mL in a chondrogenic medium made of maintenance medium enriched by 1× of ITS premix (resulting in 10 μg/mL insulin, 10 μg/mL human transferrin and 30 nM sodium selenite) (Life technologies). One droplet of cell suspension (10 μL) was placed at the center of each well of a 24-well plate. Cells were allowed to adhere for 2 h at 37° C., followed by addition of 500 μL chondrogenic medium supplemented. […] After 14 days, induction of hypertrophic differentiation and mineralization was induced by the mineralization medium made of α-MEM medium (Gibco) containing 1% AB, 5% FBS, 5 μg/ml human transferrin, 1× of ITS premix, 50 μg/ml ascorbic acid-2-phosphate (AA) (Sigma) and 10 mM β-glycerophosphate (BGP) (Sigma). […] Micromasses were collected at time points 1, 7, 14 21 and 28 days. Each time point was processed in three technical replicates. The medium was changed every other day. […]
# Wnt/β-catenin pathway = details: PEP16 at 300 or 1000 ng/mL; day 7, 14, 21; during osteogenesis
# Procedure: Cells were maintained in a humidified atmosphere of 5% CO2 at 37° C.
sequence,measurement,setting,value
DRLGKKVKRWDMKLRH (PEP16),CamKII pathway activation,CamKII pathway [1],efficiently increased the activation
same,CamKII pathway activation (P-CamKII over total),CamKII pathway [2],increased the activation of the CamKII pathway
same,Wnt/β-catenin pathway activation,Wnt/β-catenin pathway,reduced in the activation
